# Experimental data taken from US11767506B2, “In vitro maturation culture medium of immature oocytes and use thereof” (CHINA AGRICULTURAL UNIVERSITY, priority 2017, dated 2023).
# Columns and labels:
# mouse oocytes = experiment: In vitro maturation of mouse immature oocytes (cumulus oocyte complexes) on mouse granule cells, fertilization and embryo culture; type: cell-based, C57/BL6J mice
# Excerpt: The specific culture method was referred to Example 8, and the differences were: instead of the granule cells form patients, granule cells from C57/BL6J mice were used; instead of the oocytes form patients, cumulus oocyte complexes form C57/BL6J mice were used.
# [1] = tested on: oocyte in follicle of mouse; experiment: In vitro follicle culture model, recovery of oocyte meiosis; type: cell-based; details: FIG. 2A
# human immature oocytes = experiment: In vitro maturation of human immature oocytes on granule cell feeder layer, then ICSI and embryo culture; type: cell-based
# Protocol: Microdrop culture of granule cells: the cumulus oocyte complex collected from superovulation of patients were digested with hyaluronidase and then centrifuged to obtain the granule cells; the cells were cultured in the culture solution for in vitro maturation of examples 1˜6 for microdroplet adherent culture respectively. The microdroplets were covered with liquid paraffin. After the granule cells adhered to the wall of the culture dishes, the resultants could be used as the culture medium 1˜6 for in vitro maturation of immature oocytes.
# The immature oocytes identified from superovulation of patients were put in the culture medium for in vitro maturation 1 (i.e., the culture medium obtained by using the culture solution for in vitro maturation of Example 1) containing feeder layer cells for microdrop culture. There were 1˜2 oocytes per microdroplet, culture time 20˜25 h, and culture conditions: 37° C., air with 5% CO2 and 6% of O2, and humidity 100%. The development results of the immature oocytes after microdroplet culturing in the culture medium for in vitro maturation 1 were shown in FIG. 1.
# Intracytoplasmic sperm injection (ICSI) using the mature oocytes: the immature oocytes were culture in vitro for 20˜25 h, the maturation status was observed. The oocytes reached the metaphase II (MII) were placed under micromanipulator for ICSI injection.
# Embryo culture after fertilization: embryo culture medium G-1PLUS™ (Vitrolife, Sweden) was used to make several 50 μL microdroplets in a 35 mm culture dish. Mineral oil was covered on the surface of the droplets. This culture medium was suitable for culturing embryos from fertilized oocyte (0 day) to 8-cell embryo.
# Embryo culture medium G-2 PLUS™ (Vitrolife. Sweden) was used to make several 50 μL microdroplets in a 35 mm Petri culture dish. Mineral oil was covered on the surface of the droplets. This culture medium was suitable for culturing embryos from 8-cell stage until blastocyst stage.
# The common medium for maturation was M199 culture medium.
# [2] = tested on: human ovary granule cells; experiment: Expression/secretion of EGF-like growth factors (AREG) by granule cells; type: cell-based; details: FIG. 1F
# Protocol: Correspondingly, our experiments were performed by: under conditions of in vitro culture, simulating the effect of LH, which functions on granule cells to promote the maturation of oocytes in vivo, so as to achieve the goal of promoting the maturation of oocytes and meanwhile, improving the development potential.
compound,measurement,setting,value
Cc1ccc(NC(=O)CCCCCC(=O)Nc2ccccc2N)cc1 [HDACi 4b],maturation and development ability of mouse oocytes,mouse oocytes; FIG. 2,significantly promotes
same,oocyte stepping over the first meiosis to metaphase II (MII),mouse oocytes; FIG. 2C,significantly promotes
same,cleavage abilities after fertilization,"mouse oocytes; FIG. 2D, versus control group",basically the same
same,ability to develop into an embryo from fertilized GV stage oocytes,mouse oocytes; FIG. 2E,significantly improved
same,ability to develop into a blastocyst from fertilized treated oocytes,mouse oocytes; FIG. 2F,significantly increased
same,ability to develop into a blastocyst (blastocyst counting) from fertilized treated GV stage oocytes,mouse oocytes; FIG. 2H,significantly increased
same,quality of blastocysts (immunofluorescence of OCT4),mouse oocytes; FIG. 2I,significantly increased
same,recovery of oocyte meiosis in follicle of mouse,[1],significantly promotes
same,maturation and development of human oocytes from germinal vesicle (GV) stage into metaphase II (MII) stage,human immature oocytes; FIG. 1A,promotes the maturation and development
same,numbers of 2 pronucleus zygotes (2PN) obtained by ICSI fertilization on MII oocytes,"human immature oocytes; FIG. 1B, treated group versus control group",basically the same
same,cleavage ability of treated oocytes after fertilization,human immature oocytes; FIG. 1C,significantly improved
same,development ability of embryos (blastocyst counting),human immature oocytes; FIG. 1E,significantly increased
same,quality of blastocysts (immunofluorescence of OCT4 and CDX2),human immature oocytes; FIG. 1G,significantly improved
same,expression of AREG,[2],significantly promotes
